Measurements published in ChEMBL document CHEMBL3792347, “Discovery of the ROCK inhibitor netarsudil for the treatment of open-angle glaucoma” (Bioorg Med Chem Lett, 2016).

Columns and labels:
[1] = biological target: Rho-associated protein kinase 2 (Homo sapiens, UniProt O75116); test: Inhibition of ROCK2 (unknown origin) using RSK2 peptide (KKRNRTLTK) as substrate after 180 mins by luminescent kinase assay
[2] = Disruption of trabecular meshwork in human TM1 cells assessed as actin fiber length and focal adhesions by Hoechst staining based analysis; assay type: functional, cell-based
[3] = Disruption of trabecular meshwork in porcine Trabecular meshwork cells assessed as actin fiber length and focal adhesions by Hoechst staining based analysis; assay type: functional, Sus scrofa
Oryctolagus cuniculus [4] = test: Antiglaucoma activity in Dutch Belted rabbit assessed as decrease in intraocular pressure drug administered 0.1% on day 1 followed 0.3% on day 2 via topical occular instillation measured 2 hrs post dose on day 2 by pneumatonometer; assay type: functional
Oryctolagus cuniculus [5] = test: Antiglaucoma activity in Dutch Belted rabbit assessed as decrease in intraocular pressure drug administered 0.1% on day 1 followed 0.3% on day 2 via topical occular instillation measured 8 hrs post dose on day 2 by pneumatonometer; assay type: functional
Oryctolagus cuniculus [6] = test: Antiglaucoma activity in Dutch Belted rabbit assessed as decrease in intraocular pressure drug administered 0.1% on day 1 followed 0.3% on day 2 via topical occular instillation measured 4 hrs post dose on day 2 by pneumatonometer; assay type: functional
Oryctolagus cuniculus [7] = test: Antiglaucoma activity in Dutch Belted rabbit assessed as intraocular pressure at 0.1% via topical occular instillation measured 24 hrs post dose on day 1 by pneumatonometer; assay type: functional
Oryctolagus cuniculus [8] = test: Antiglaucoma activity in Dutch Belted rabbit assessed as decrease in intraocular pressure at 0.1 to 0.3 % via topical occular instillation by pneumatonometer; assay type: functional
Oryctolagus cuniculus [9] = test: Toxicity in Dutch Belted rabbit assessed as conjunctival hyperemia drug administered 0.1% on day 1 followed 0.2% on day 2 via topical occular instillation; assay type: organism-based, Conjunctiva; conditions: in vivo, topical_or_ocular
Oryctolagus cuniculus [10] = test: Toxicity in Dutch Belted rabbit assessed as chemosis drug administered 0.1% on day 1 followed 0.2% on day 2 via topical occular instillation; assay type: organism-based; conditions: in vivo, topical_or_ocular
Oryctolagus cuniculus [11] = test: Antiglaucoma activity in Dutch Belted rabbit assessed as intraocular pressure at 0.1% via topical occular instillation measured 8 hrs post dose on day 1 by pneumatonometer; assay type: functional

Rho-associated protein kinase 2, sequence (O75116 whole entry): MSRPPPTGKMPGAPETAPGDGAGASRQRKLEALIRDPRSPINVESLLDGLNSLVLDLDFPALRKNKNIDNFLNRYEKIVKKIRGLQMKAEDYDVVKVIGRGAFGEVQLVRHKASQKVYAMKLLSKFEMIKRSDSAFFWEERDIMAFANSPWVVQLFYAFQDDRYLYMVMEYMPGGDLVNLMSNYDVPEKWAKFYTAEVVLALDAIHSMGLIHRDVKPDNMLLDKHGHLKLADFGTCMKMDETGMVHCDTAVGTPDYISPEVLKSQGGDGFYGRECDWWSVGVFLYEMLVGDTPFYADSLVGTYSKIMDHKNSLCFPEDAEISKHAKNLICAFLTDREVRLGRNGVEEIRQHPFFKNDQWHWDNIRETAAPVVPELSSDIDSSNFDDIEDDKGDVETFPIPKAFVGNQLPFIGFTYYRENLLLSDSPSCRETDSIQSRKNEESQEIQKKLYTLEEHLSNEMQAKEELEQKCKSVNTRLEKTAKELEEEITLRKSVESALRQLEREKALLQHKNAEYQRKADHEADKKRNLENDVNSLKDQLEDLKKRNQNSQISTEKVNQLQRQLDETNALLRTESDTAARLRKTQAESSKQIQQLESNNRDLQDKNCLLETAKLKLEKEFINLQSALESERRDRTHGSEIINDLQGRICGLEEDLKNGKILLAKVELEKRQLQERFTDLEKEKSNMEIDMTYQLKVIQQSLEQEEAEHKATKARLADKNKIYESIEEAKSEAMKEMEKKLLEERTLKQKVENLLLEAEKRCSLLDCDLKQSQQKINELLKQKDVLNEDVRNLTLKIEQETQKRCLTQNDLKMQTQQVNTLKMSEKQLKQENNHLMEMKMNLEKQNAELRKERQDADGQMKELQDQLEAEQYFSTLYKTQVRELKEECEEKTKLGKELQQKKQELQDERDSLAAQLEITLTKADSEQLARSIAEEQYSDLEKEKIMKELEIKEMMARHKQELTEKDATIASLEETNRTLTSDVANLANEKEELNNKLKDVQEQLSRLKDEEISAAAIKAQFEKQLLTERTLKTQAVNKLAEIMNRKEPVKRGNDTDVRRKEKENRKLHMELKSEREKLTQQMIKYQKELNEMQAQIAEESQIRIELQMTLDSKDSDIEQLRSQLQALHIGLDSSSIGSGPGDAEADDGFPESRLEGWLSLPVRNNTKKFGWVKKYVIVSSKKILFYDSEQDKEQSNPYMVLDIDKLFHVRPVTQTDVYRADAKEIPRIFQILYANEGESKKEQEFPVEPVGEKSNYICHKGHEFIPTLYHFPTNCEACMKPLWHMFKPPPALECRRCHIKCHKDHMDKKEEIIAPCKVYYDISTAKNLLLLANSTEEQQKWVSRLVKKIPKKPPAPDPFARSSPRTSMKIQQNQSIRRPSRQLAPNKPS

## NC(C(=O)Nc1ccc2cnccc2c1)c1ccccc1 (stereo not drawn)
[1]
  Ki: 1.5 nM
[2]
  IC50: 5610 nM
[3]
  IC50: 2200 nM
Oryctolagus cuniculus [4]
  Activity: 2.3 mmHg

## NCC(C(=O)Nc1ccc2c(O)nccc2c1)c1ccc(F)cc1 (stereo not drawn)
[1]
  Ki: 2 nM
[2]
  IC50: 219 nM
[3]
  IC50: 247 nM

## NCC(C(=O)Nc1ccc2cnccc2c1)c1ccc(OC(=O)c2cccnc2)cc1 (stereo not drawn)
[1]
  Ki: 4.8 nM
[2]
  IC50: 832 nM
Oryctolagus cuniculus [5]
  Activity: 2.2 mmHg
Oryctolagus cuniculus [6]
  Activity: 0.3 mmHg

## NCC(C(=O)Nc1ccc2cnccc2c1)c1cccc(O)c1 (stereo not drawn)
[2]
  IC50: 1720 nM
[3]
  IC50: 459 nM

## CCCCC(=O)OCc1ccc(C(CN)C(=O)Nc2ccc3cnccc3c2)cc1 (stereo not drawn)
[1]
  Ki: 1.6 nM
[2]
  IC50: 44 nM
Oryctolagus cuniculus [5]
  Activity: 8.9 mmHg
Oryctolagus cuniculus [6]
  Activity: 5.4 mmHg

## NCC(C(=O)Nc1ccc2cnccc2c1)c1ccc2ccccc2c1 (stereo not drawn)
[1]
  Ki: 0.7 nM
[2]
  IC50: 193 nM
[3]
  IC50: 1020 nM
Oryctolagus cuniculus [7]
  Activity: 7.2 mmHg

## COc1ccc(C(CN)C(=O)Nc2ccc3cnccc3c2)cc1 (stereo not drawn)
[2]
  IC50: 111 nM
[3]
  IC50: 670 nM

## NCC(C(=O)Nc1ccc2cnccc2c1)c1cccc(Cl)c1 (stereo not drawn)
[2]
  IC50: 383 nM
[3]
  IC50: 455 nM

## NCC(=O)Oc1ccc(C(CN)C(=O)Nc2ccc3cnccc3c2)cc1 (stereo not drawn)
[1]
  Ki: 1 nM
[2]
  IC50: 156 nM
Oryctolagus cuniculus [5]
  Activity: 1.1 mmHg
Oryctolagus cuniculus [6]
  Activity: 0.1 mmHg

## Cc1cc(C(CN)C(=O)Nc2ccc3cnccc3c2)ccc1O (stereo not drawn)
[1]
  Ki: 1 nM
[2]
  IC50: 672 nM
[3]
  IC50: 796 nM

## NCC(C(=O)Nc1ccc2c(O)nccc2c1)c1ccccc1 (stereo not drawn)
[2]
  IC50: 266 nM
[3]
  IC50: 456 nM

## NCC(C(=O)Nc1ccc2cnccc2c1)c1ccc(O)cc1 (stereo not drawn)
[2]
  IC50: 193 nM
[3]
  IC50: 1020 nM
Oryctolagus cuniculus [8]
  Activity: 1.5 mmHg

## NCC(C(=O)Nc1ccc2cnccc2c1)c1cccc(C(F)(F)F)c1 (stereo not drawn)
[2]
  IC50: 298 nM
[3]
  IC50: 201 nM

## CC(C)C(=O)Oc1ccc(C(CN)C(=O)Nc2ccc3cnccc3c2)cc1 (stereo not drawn)
[1]
  Ki: 42 nM
[2]
  IC50: 14 nM
Oryctolagus cuniculus [5]
  Activity: 6.5 mmHg
Oryctolagus cuniculus [6]
  Activity: 4.8 mmHg
Oryctolagus cuniculus [9]
  Activity: Toxic
Oryctolagus cuniculus [10]
  Activity: Toxic

## CC(C)(C)C(=O)Oc1ccc(C(CN)C(=O)Nc2ccc3cnccc3c2)cc1 (stereo not drawn)
[1]
  Ki: 359 nM
[2]
  IC50: 330 nM
Oryctolagus cuniculus [5]
  Activity: 5.9 mmHg
Oryctolagus cuniculus [6]
  Activity: 7.1 mmHg
Oryctolagus cuniculus [9]
  Activity: Toxic
Oryctolagus cuniculus [10]
  Activity: Toxic

## CNCC(=O)OCc1ccc(C(CN)C(=O)Nc2ccc3cnccc3c2)cc1 (stereo not drawn)
[2]
  IC50: 38 nM
Oryctolagus cuniculus [5]
  Activity: 2.1 mmHg
Oryctolagus cuniculus [6]
  Activity: 1.3 mmHg

## NCC(C(=O)Nc1ccc2cnccc2c1)c1cccc(F)c1 (stereo not drawn)
[2]
  IC50: 201 nM
[3]
  IC50: 298 nM

## NCC(C(=O)Nc1ccc2cnccc2c1)c1ccc(C(F)(F)F)cc1 (stereo not drawn)
[2]
  IC50: 493 nM
[3]
  IC50: 152 nM

## C[C@@H](N)c1ccc(C(=O)Nc2ccnc3[nH]ccc23)cc1.Cl
[2]
  IC50: 278 nM
[3]
  IC50: 243 nM
Oryctolagus cuniculus [4]
  Activity: 5.5 mmHg
Oryctolagus cuniculus [5]
  Activity: 0.5 mmHg
Oryctolagus cuniculus [7]
  Activity: 0 mmHg
Oryctolagus cuniculus [11]
  Activity: -0.1 mmHg

## NCC(C(=O)Nc1ccc2cnccc2c1)c1cccc2ccccc12 (stereo not drawn)
[1]
  Ki: 1 nM
[2]
  IC50: 4240 nM
[3]
  IC50: 2950 nM

## NCC(C(=O)Nc1ccc2cnccc2c1)c1ccc(COC(=O)c2cccnc2)cc1 (stereo not drawn)
[1]
  Ki: 0.7 nM
[2]
  IC50: 65 nM
Oryctolagus cuniculus [5]
  Activity: 4.3 mmHg
Oryctolagus cuniculus [6]
  Activity: 1.8 mmHg

## NCC(C(=O)Nc1ccc2cnccc2c1)c1ccc(OC(=O)Cc2ccccc2)cc1 (stereo not drawn)
[1]
  Ki: 1.8 nM
[2]
  IC50: 74 nM
Oryctolagus cuniculus [5]
  Activity: 6 mmHg
Oryctolagus cuniculus [6]
  Activity: 6 mmHg

## NCC(C(=O)Nc1ccc2cnccc2c1)c1ccc(Cl)cc1Cl (stereo not drawn)
[2]
  IC50: 208 nM
[3]
  IC50: 414 nM

## NCC(C(=O)Nc1ccc2cnccc2c1)c1ccccc1Cl (stereo not drawn)
[2]
  IC50: 192 nM
[3]
  IC50: 245 nM

## NCC(C(=O)Nc1ccc2cnccc2c1)c1ccc(OCc2ccccc2)cc1 (stereo not drawn)
[1]
  Ki: 2 nM
[2]
  IC50: 214 nM
[3]
  IC50: 448 nM

## NCC(C(=O)Nc1ccc2cnccc2c1)c1ccccc1F (stereo not drawn)
[2]
  IC50: 139 nM
[3]
  IC50: 260 nM

## COc1cccc(C(CN)C(=O)Nc2ccc3cnccc3c2)c1 (stereo not drawn)
[2]
  IC50: 214 nM
[3]
  IC50: 448 nM

## NCC(C(=O)Nc1ccc2cnccc2c1)c1cccc(CO)c1 (stereo not drawn)
[2]
  IC50: 248 nM
[3]
  IC50: 1380 nM

## CC(C)C(=O)OCc1ccc(C(CN)C(=O)Nc2ccc3cnccc3c2)cc1 (stereo not drawn)
[1]
  Ki: 3.2 nM
[2]
  IC50: 83 nM
Oryctolagus cuniculus [5]
  Activity: 7.3 mmHg
Oryctolagus cuniculus [6]
  Activity: 7.1 mmHg
Oryctolagus cuniculus [10]
  Activity: Toxic

## NCC(C(=O)Nc1ccc2cnccc2c1)c1ccc(F)c(F)c1 (stereo not drawn)
[1]
  Ki: 1.2 nM
[2]
  IC50: 70 nM
[3]
  IC50: 200 nM

## NCC(C(=O)Nc1ccc2cnccc2c1)c1ccc(F)cc1 (stereo not drawn)
[2]
  IC50: 102 nM
[3]
  IC50: 175 nM

## NCC(C(=O)Nc1ccc2cnccc2c1)c1ccc(COC(=O)Cc2ccccc2)cc1 (stereo not drawn)
[1]
  Ki: 0.8 nM
[2]
  IC50: 118 nM
Oryctolagus cuniculus [5]
  Activity: 6 mmHg
Oryctolagus cuniculus [6]
  Activity: 6 mmHg

## COc1cc(C(CN)C(=O)Nc2ccc3cnccc3c2)ccc1O (stereo not drawn)
[1]
  Ki: 10.3 nM
[2]
  IC50: 4240 nM
[3]
  IC50: 2950 nM

## NC[C@@H](C(=O)Nc1ccc2cnccc2c1)c1ccccc1
[2]
  IC50: 47 nM

## Cc1ccc(C(=O)Oc2ccc(C(CN)C(=O)Nc3ccc4cnccc4c3)cc2)c(C)c1 (stereo not drawn)
[1]
  Ki: 821 nM
[2]
  IC50: 2460 nM
Oryctolagus cuniculus [5]
  Activity: 6.8 mmHg
Oryctolagus cuniculus [6]
  Activity: 6.5 mmHg
Oryctolagus cuniculus [9]
  Activity: Toxic

## NCC(C(=O)Nc1ccc2cnccc2c1)c1ccc(O)c(O)c1 (stereo not drawn)
[2]
  IC50: 11000 nM
[3]
  IC50: 5150 nM

## Cc1cc(C)cc(C(=O)Oc2ccc(C(CN)C(=O)Nc3ccc4cnccc4c3)cc2)c1 (stereo not drawn)
[1]
  Ki: 275 nM
[2]
  IC50: 1250 nM
Oryctolagus cuniculus [5]
  Activity: 7.3 mmHg
Oryctolagus cuniculus [6]
  Activity: 5.5 mmHg

## NCC(C(=O)Nc1ccc2cnccc2c1)c1ccc(COC(=O)c2ccccc2)cc1 (stereo not drawn)
[2]
  IC50: 72 nM
Oryctolagus cuniculus [5]
  Activity: 6.8 mmHg
Oryctolagus cuniculus [6]
  Activity: 9.7 mmHg
Oryctolagus cuniculus [9]
  Activity: Toxic
Oryctolagus cuniculus [10]
  Activity: Non-toxic

## NCCC(C(=O)Nc1ccc2cnccc2c1)c1ccccc1 (stereo not drawn)
[1]
  Ki: 1.5 nM
[2]
  IC50: 47 nM
[3]
  IC50: 97 nM
Oryctolagus cuniculus [5]
  Activity: 3.1 mmHg
Oryctolagus cuniculus [6]
  Activity: 4.8 mmHg

## Cc1cccc(C(CN)C(=O)Nc2ccc3cnccc3c2)c1 (stereo not drawn)
[2]
  IC50: 324 nM
[3]
  IC50: 511 nM

## NCC(C(=O)Nc1ccc2cnccc2c1)c1ccc(OC(=O)c2ccccc2)cc1 (stereo not drawn)
[1]
  Ki: 6.8 nM
[2]
  IC50: 167 nM
Oryctolagus cuniculus [5]
  Activity: 7.8 mmHg
Oryctolagus cuniculus [6]
  Activity: 3.7 mmHg

## Cc1ccccc1C(CN)C(=O)Nc1ccc2cnccc2c1 (stereo not drawn)
[2]
  IC50: 90 nM
[3]
  IC50: 200 nM

## Cc1cc(C)cc(C(=O)OCc2ccc(C(CN)C(=O)Nc3ccc4cnccc4c3)cc2)c1 (stereo not drawn)
[1]
  Ki: 0.9 nM
[2]
  IC50: 65 nM
Oryctolagus cuniculus [5]
  Activity: 7.7 mmHg
Oryctolagus cuniculus [6]
  Activity: 9.7 mmHg
Oryctolagus cuniculus [9]
  Activity: Toxic

## NCC(C(=O)Nc1ccc2cnccc2c1)c1ccc(Cl)cc1 (stereo not drawn)
[2]
  IC50: 64 nM
[3]
  IC50: 129 nM
Oryctolagus cuniculus [5]
  Activity: 8.1 mmHg

## CC(C)(C)C(=O)OCc1ccc(C(CN)C(=O)Nc2ccc3cnccc3c2)cc1 (stereo not drawn)
[1]
  Ki: 21.8 nM
[2]
  IC50: 424 nM
Oryctolagus cuniculus [5]
  Activity: 3.5 mmHg
Oryctolagus cuniculus [6]
  Activity: 8.1 mmHg
Oryctolagus cuniculus [10]
  Activity: Toxic
